Results reported in ChEMBL document CHEMBL1158995, “A novel perlactone from the Caribbean sponge Plakortis angulospiculatus” (J Nat Prod, 1991).
Activity calls are given as the source filed them. No cut-off for these calls is given here.

Test system: Candida albicans
Test: Antimicrobial activity against Candida albicans ATCC 32354
Format: functional, organism-based

## CC1=C(O)C(C)(CCCCCC(C)CCCCc2ccc(O)cc2)OOC1=O (stereo unspecified)
  Activity: inactive
